Test results taken from publication PMC6277767, “Broad and Region-Specific Impacts of the Synthetic Cannabinoid CP 55,940 in Adolescent and Adult Female Mouse Brains” (Frontiers in Molecular Neuroscience, 2018).

System: CD1 female mouse brain lipidome
Test: Brain-region lipid levels (HPLC/MS/MS lipidomics) 2 h after single i.p. 3 mg/kg CP 55,940 vs vehicle
Assay type: in vivo
Parameters: N-arachidonoyl phenylalanine level, Mean / N-stearoyl tryptophan level, Mean / N-stearoyl proline level, Mean / N-stearoyl leucine level, Mean / N-stearoyl phenylalanine level, Mean / N-stearoyl serine level, Mean / N-stearoyl methionine level, Mean: unit: moles per gram
Protocol: The Bloomington Institutional Animal Care and Use Committee of Indiana University reviewed and approved the animal procedures. Female mice from the CD1 strain were utilized to match our study examining THC’s effects on the brain lipidome ([Leishman et al., 2018]). Mice were given a single i.p. injection of either 3 mg/kg CP or 1:1:18 cremophor:ethanol:saline vehicle (please refer to the section “3 mg/kg CP Is Relevant for Synthetic Cannabinoid Abuse and Has Stronger Effects on the Female Mouse Brain Lipidome During Adolescence” for a justification of dose and use of female mice). Three different age groups were given injections: PND 35 and PND 50 adolescents, and adult mice (PND 113). At least eight mice in each age group received CP and at least eight received vehicle. Matching the THC study time course ([Leishman et al., 2018]), mice were sacrificed via rapid decapitation 2 h after injection. Brains were immediately removed and flash-frozen in liquid nitrogen, and then stored at -80°C until dissections were performed. Brains were dissected on an ice-cold dissection plate into the following regions: STR, HIPP, CER, THAL, CTX, HYP, MID, and STEM. These abbreviations for these brain areas will be used exclusively when discussing the results generated by these specific dissections. Each dissected area was immediately placed in liquid nitrogen and then stored at -80°C until used for lipid extraction.
Tissue extracts were performed as previously described ([Bradshaw et al., 2006]; [Stuart et al., 2013]; [Raboune et al., 2014]; [Leishman et al., 2016a],[b], [2017], [2018]). First, samples were shock frozen in liquid nitrogen, weighed, and transferred to a centrifuge tube. The mass of the largest sample was multiplied by 50 to determine how many milliliters of HPLC-grade methanol (Fisher, Fair Lawn, NJ, United States) to add. Then, samples were spiked with 500 pmol deuterium-labeled NAGly (d8NAGly; Cayman Chemical, Ann Arbor, MI, United States). Samples were placed on ice in darkness for 2 h then individually homogenized and centrifuged at 19,000 × g for 20 min at 20°C. Supernatants were diluted with HPLC water (purified in house) to make a solution of 75% water, 25% supernatant. Lipids were partially purified on C18 solid phase extraction columns (Agilent, Palo Alto, CA, United States). A series of four elutions with 1.5 mL of 60%, 75%, 85%, and 100% methanol were collected ([Stuart et al., 2013]; [Leishman et al., 2016a],[b], [2018]).
As previously described ([Bradshaw et al., 2006]; [Tan et al., 2006]; [Smoum et al., 2010]; [Stuart et al., 2013]; [Tortoriello et al., 2013]; [Raboune et al., 2014]; [Leishman et al., 2016a],[b], [2017], [2018]), samples were analyzed using an Applied Biosystems API 3000 triple quadrupole mass spectrometer with electrospray ionization (Foster City, CA, United States). Using an Agilent XDB-C18 reversed phase analytical column and optimized mobile phase gradients, 20 μL from each elution were chromatographed. Two Shimadzu 10ADvp pumps (Columbia, MD, United States) provided the pressure for gradient elution. Mobile phase A: 20% methanol, 80% water (v/v) and 1 mM ammonium acetate (Sigma, St. Louis, MO, United States). Mobile phase B: 100% methanol, 1 mM ammonium acetate. Every method run began with 0% mobile phase B, reached 100% mobile phase B flowing at 0.2 mL/min, and gradually returned to 0% mobile phase B.
This screening library will be referred to as the lipidome when discussing data from this study. HPLC/MS/MS data were analyzed using Analyst software (Applied Biosystems) ([Bradshaw et al., 2006]; [Tan et al., 2006]; [Stuart et al., 2013]; [Tortoriello et al., 2013]; [Raboune et al., 2014]; [Leishman et al., 2016a],[b], [2017], [2018]). Chromatograms (Supplementary Figure 3) were generated by determining the retention time of analytes from the analytical column with a [M-1] or [M+1] parent peak and a fragmentation peak corresponding to the programmed values. […]

[1] = cortex, PND 35, 3 mg/kg CP 55,940
[2] = cortex, PND 35 adolescent female mice, 3 mg/kg CP 55,940
[3] = hippocampus, PND 50, 3 mg/kg CP 55,940 vs Veh

CCCCCCC(C)(C)c1ccc([C@@H]2C[C@H](O)CC[C@H]2CCCO)c(O)c1 [CP 55,940]
N-oleoyl valine Magnitude (x Veh level) [1]: 1.33 x Veh level
N-palmitoyl leucine Direction (rel to Veh) [1]: ↑
N-palmitoyl leucine, Magnitude (x Veh level) [1]: 1.52 x Veh level
N-palmitoyl serine Direction (rel to Veh) [1]: ↓
N-palmitoyl serine, Magnitude (x Veh level) [1]: 0.77 x Veh level
N-palmitoyl tyrosine Direction (rel to Veh) [1]: ↑
N-palmitoyl tyrosine Magnitude (x Veh level) [1]: 1.25 x Veh level
N-palmitoyl valine Direction (rel to Veh) [1]: ↑
N-palmitoyl valine Magnitude (x Veh level) [1]: 1.57 x Veh level
N-stearoyl serine Direction (rel to Veh) [1]: ↓
N-stearoyl serine Magnitude (x Veh level) [1]: 0.84 x Veh level
N-stearoyl tyrosine Direction (rel to Veh) [1]: ↑
N-stearoyl tyrosine Magnitude (x Veh level) [1]: 1.46 x Veh level
N-stearoyl valine Direction (rel to Veh) [1]: ↑
N-stearoyl valine Magnitude (x Veh level) [1]: 1.32 x Veh level
PGF2α Direction (rel to Veh) [1]: ↑
PGF2α Magnitude (x Veh level) [1]: 1.19 x Veh level
phosphoLEA Direction (rel to Veh) [1]: ↑
phosphoLEA Magnitude (x Veh level) [1]: 1.51 x Veh level
2-arachidonoyl glycerol level, Mean [2]: 1.2E-09
2-linoleoyl glycerol level, Mean [2]: 1.12E-10
2-oleoyl glycerol level, Mean [2]: 5.02E-09
2-palmitoyl glycerol level, Mean [2]: 5.49E-09
6-ketoPGF1α level, Mean [2]: 5.64E-12
Arachidonic acid level, Mean [2]: 1.78E-09
Linoleic acid level, Mean [2]: 6.06E-10
N- stearoyl valine level, Mean [2]: 1.46E-12
N-arachidonoyl GABA level, Mean [2]: 2.26E-11
N-arachidonoyl alanine level, Mean [2]: 2.81E-12
N-arachidonoyl dopamine level, Mean [2]: BDL
N-arachidonoyl ethanolamine level, Mean [2]: 1.13E-10
N-arachidonoyl glycine level, Mean [2]: 1.35E-11
N-arachidonoyl methionine level, Mean [2]: 2.69E-13
N-arachidonoyl phenylalanine level, Mean [2]: 7.25E-13
N-arachidonoyl proline level, Mean [2]: BDL
N-arachidonoyl serine level, Mean [2]: 2.41E-12
N-arachidonoyl taurine level, Mean [2]: 1.3E-10
N-arachidonoyl tryptophan level, Mean [2]: BDL
N-arachidonoyl tyrosine level, Mean [2]: 8.47E-13
N-docosahexaenoyl GABA level, Mean [2]: 4.81E-12
N-docosahexaenoyl alanine level, Mean [2]: 7.37E-13
N-docosahexaenoyl ethanolamine level, Mean [2]: 1.21E-10
N-docosahexaenoyl glycine level, Mean [2]: 1.18E-12
N-docosahexaenoyl leucine level, Mean [2]: 1.02E-12
N-docosahexaenoyl phenylalanine level, Mean [2]: 5.48E-13
N-docosahexaenoyl proline level, Mean [2]: BDL
N-docosahexaenoyl serine level, Mean [2]: 5.64E-12
N-docosahexaenoyl tryptophan level, Mean [2]: BDL
N-docosahexaenoyl tyrosine level, Mean [2]: 5.7E-13
N-docosahexaenoyl valine level, Mean [2]: 2.57E-13
N-linoleoyl GABA level, Mean [2]: 3.78E-12
N-linoleoyl alanine level, Mean [2]: 6.3E-13
N-linoleoyl ethanolamine level, Mean [2]: 2.31E-10
N-linoleoyl glycine level, Mean [2]: 3.61E-13
N-linoleoyl leucine level, Mean [2]: 1.58E-13
N-linoleoyl phenylalanine level, Mean [2]: 1.48E-13
N-linoleoyl proline level, Mean [2]: BDL
N-linoleoyl serine level, Mean [2]: 1.38E-11
N-linoleoyl tryptophan level, Mean [2]: BDL
N-nervonoyl valine level, Mean [2]: BDL
N-oleoyl GABA level, Mean [2]: 9.1E-12
N-oleoyl alanine level, Mean [2]: 2.8E-12
N-oleoyl dopamine level, Mean [2]: BDL
N-oleoyl ethanolamine level, Mean [2]: 4.68E-10
N-oleoyl glycine level, Mean [2]: 5.53E-12
N-oleoyl leucine level, Mean [2]: 4.34E-13
N-oleoyl methionine level, Mean [2]: 4.2E-13
N-oleoyl phenylalanine level, Mean [2]: 2.01E-12
N-oleoyl serine level, Mean [2]: 5.9E-11
N-oleoyl tyrosine level, Mean [2]: 6.76E-13
N-oleoyl valine level, Mean [2]: 4.65E-13
N-palmitoyl GABA level, Mean [2]: 1.28E-11
N-palmitoyl alanine level, Mean [2]: 4.96E-12
N-palmitoyl ethanolamine level, Mean [2]: 1.43E-10
N-palmitoyl glycine level, Mean [2]: 1.28E-11
N-palmitoyl leucine level, Mean [2]: 1.76E-12
N-palmitoyl methionine level, Mean [2]: 1.41E-12
N-palmitoyl phenylalanine level, Mean [2]: 3.73E-12
N-palmitoyl proline level, Mean [2]: 7.7E-14
N-palmitoyl serine level, Mean [2]: 1.08E-11
N-palmitoyl tryptophan level, Mean [2]: 9.75E-13
N-palmitoyl tyrosine level, Mean [2]: 1.99E-12
N-palmitoyl valine level, Mean [2]: 1.52E-12
N-stearoyl GABA level, Mean [2]: 1.48E-11
N-stearoyl alanine level, Mean [2]: 1.04E-11
N-stearoyl ethanolamine level, Mean [2]: 5.63E-11
N-stearoyl glycine level, Mean [2]: 7.24E-12
N-stearoyl leucine level, Mean [2]: 1.55E-12
N-stearoyl methionine level, Mean [2]: 1.68E-12
N-stearoyl phenylalanine level, Mean [2]: 3.37E-12
N-stearoyl proline level, Mean [2]: 3.31E-14
N-stearoyl serine level, Mean [2]: 1.35E-11
N-stearoyl tryptophan level, Mean [2]: 3.26E-12
N-stearoyl tyrosine level, Mean [2]: 3.04E-13
Oleic acid level, Mean [2]: 6.83E-09
PGE2 level, Mean [2]: 4.31E-10
PhosphoLEA level, Mean [2]: 8.98E-12
2-linoleoyl glycerol Direction (relative to Veh) [3]: ↓
2-linoleoyl glycerol Magnitude (x Veh level) [3]: 0.73 x Veh level
6-ketoPGF1α Direction (relative to Veh) [3]: ↑
6-ketoPGF1α Magnitude (x Veh level) [3]: 1.46 x Veh level
Linoleic acid, Direction (relative to Veh) [3]: ↓
